In patent US20240138411A1, “METHOD OF […] OF SUGARCANE” (CORTEVA AGRISCIENCE LLC, priority 2021, published 2024):
“Also recorded” adds a separate entry of the source.

Test system: sugarcane
Experiment: Sugarcane flowering inhibition field trials, floral induction rated on UFSCar scale
Type: in vivo
Description: In order to explore the activity of florpyrauxifen as flowering inhibitor in sugarcane, field studies were carried out. Florpyrauxifen-benzyl was tested at rates from 2 to 20 grams active ingredient per hectare (g ai/ha) and compared to Ethrel® 720 (Bayer), the standard treatment. The flowering inhibition effect was assessed by checking the floral induction in sugarcane through the percentage scale recommended by UFSCar (Federal University of Sao Carlos, Sao Paulo, Brazil).
Four trials were carried out in sugarcane where florpyrauxifen-benzyl (Rinskor®), applied at a rate of 2 to 20 g ai/ha, was compared to ethephon (Ethrel® 720) applied at a rate of 475 g ai/ha. Control plots of untreated sugarcane were also evaluated. Rinskor® and Ethrel® 720 were diluted in water and a single application for each study (backpack sprayer) was performed delivering 50 L of spray solution per ha at the reproductive stage of sugarcane and at a maximum 150 days before harvest. The activity of florpyrauxifen-benzyl as a flowering inhibitor was measured via assessments (Scale of flowering inhibition—see chart 1) performed at 0, 14, 30, 45, 60, 75, 90, 120, 150 days after application, or up to harvest time. The assessments were measured in sugarcane stems, rating the flowering induction according to the UFSCar scale shown below. Significance of treatment effect was evaluated with F-approximate test (α=0.1) and least square means from different treatments were compared with Tukey's test.

## COc1c(Cl)ccc(-c2nc(C(=O)OCc3ccccc3)c(Cl)c(N)c2F)c1F [Rinskor, florpyrauxifen-benzyl]
Table 3, 120 DAA, 10 g ai/ha
  Frequency 1/1 (0%): 72.5%
  Frequency 2/1 (15%): 27.5%
  Frequency 3/1 (30%): 0.0%
  Frequency 4/1 (50%): 0.0%
  Frequency 4/2 (80%): 0.0%
  Frequency 4/3 (90%): 0.0%
  Frequency 4/4 (100%): 0.0%
Table 3, 120 DAA, 15 g ai/ha
  % Referring to Scale: 2.6%
  Frequency 1/1 (0%): 85.0%
  Frequency 2/1 (15%): 12.5%
  Frequency 3/1 (30%): 2.5%
  Frequency 4/1 (50%): 0.0%
  Frequency 4/2 (80%): 0.0%
  Frequency 4/3 (90%): 0.0%
  Frequency 4/4 (100%): 0.0%
Table 3, 120 DAA, 20 g ai/ha
  % Referring to Scale: 3.0%
  Frequency 1/1 (0%): 80.0%
  Frequency 2/1 (15%): 20.0%
  Frequency 3/1 (30%): 0.0%
  Frequency 4/1 (50%): 0.0%
  Frequency 4/2 (80%): 0.0%
  Frequency 4/3 (90%): 0.0%
  Frequency 4/4 (100%): 0.0%
Table 3, 150 DAA, 2 g ai/ha
  % Referring to Scale: 3.0%
  Frequency 1/1 (0%): 80.0%
  Frequency 2/1 (15%): 20.0%
  Frequency 3/1 (30%): 0.0%
  Frequency 4/1 (50%): 0.0%
  Frequency 4/2 (80%): 0.0%
  Frequency 4/3 (90%): 0.0%
  Frequency 4/4 (100%): 0.0%
Table 3, 150 DAA, 5 g ai/ha
  % Referring to Scale: 1.9%
  Frequency 1/1 (0%): 87.5%
  Frequency 2/1 (15%): 12.5%
  Frequency 3/1 (30%): 0.0%
  Frequency 4/1 (50%): 0.0%
  Frequency 4/2 (80%): 0.0%
  Frequency 4/3 (90%): 0.0%
  Frequency 4/4 (100%): 0.0%
Table 3, 150 DAA, 7 g ai/ha
  % Referring to Scale: 3.0%
  Frequency 1/1 (0%): 80.0%
  Frequency 2/1 (15%): 20.0%
  Frequency 3/1 (30%): 0.0%
  Frequency 4/1 (50%): 0.0%
  Frequency 4/2 (80%): 0.0%
  Frequency 4/3 (90%): 0.0%
  Frequency 4/4 (100%): 0.0%
Table 3, 150 DAA, 10 g ai/ha
  % Referring to Scale: 0.8%
  Frequency 1/1 (0%): 95.0%
  Frequency 2/1 (15%): 5.0%
  Frequency 3/1 (30%): 0.0%
  Frequency 4/1 (50%): 0.0%
  Frequency 4/2 (80%): 0.0%
  Frequency 4/3 (90%): 0.0%
  Frequency 4/4 (100%): 0.0%
Table 3, 150 DAA, 15 g ai/ha
  % Referring to Scale: 1.9%
  Frequency 1/1 (0%): 87.5%
  Frequency 2/1 (15%): 12.5%
  Frequency 3/1 (30%): 0.0%
  Frequency 4/1 (50%): 0.0%
  Frequency 4/2 (80%): 0.0%
  Frequency 4/3 (90%): 0.0%
  Frequency 4/4 (100%): 0.0%
Table 3, 150 DAA, 20 g ai/ha
  % Referring to Scale: 0.0%
  Frequency 1/1 (0%): 100.0%
  Frequency 2/1 (15%): 0.0%
  Frequency 3/1 (30%): 0.0%
  Frequency 4/1 (50%): 0.0%
  Frequency 4/2 (80%): 0.0%
  Frequency 4/3 (90%): 0.0%
  Frequency 4/4 (100%): 0.0%
Table 4, 90 DAA, 2 g ai/ha
  % Referring to Scale: 5.6%
  Frequency 1/1 (0%): 65.0%
  Frequency 2/1 (15%): 35.0%
  Frequency 3/1 (30%): 0.0%
  Frequency 4/1 (50%): 0.0%
  Frequency 4/2 (80%): 0.0%
  Frequency 4/3 (90%): 0.0%
  Frequency 4/4 (100%): 0.0%
Table 4, 90 DAA, 4 g ai/ha
  % Referring to Scale: 1.1%
  Frequency 1/1 (0%): 87.5%
  Frequency 2/1 (15%): 12.5%
  Frequency 3/1 (30%): 0.0%
  Frequency 4/1 (50%): 0.0%
  Frequency 4/2 (80%): 0.0%
  Frequency 4/3 (90%): 0.0%
  Frequency 4/4 (100%): 0.0%
Table 4, 90 DAA, 10 g ai/ha
  % Referring to Scale: 6.0%
  Frequency 1/1 (0%): 60.0%
  Frequency 2/1 (15%): 40.0%
  Frequency 3/1 (30%): 0.0%
  Frequency 4/1 (50%): 0.0%
  Frequency 4/2 (80%): 0.0%
  Frequency 4/3 (90%): 0.0%
  Frequency 4/4 (100%): 0.0%
Table 4, 90 DAA, 15 g ai/ha
  % Referring to Scale: 2.6%
  Frequency 1/1 (0%): 82.5%
  Frequency 2/1 (15%): 17.5%
  Frequency 3/1 (30%): 0.0%
  Frequency 4/1 (50%): 0.0%
  Frequency 4/2 (80%): 0.0%
  Frequency 4/3 (90%): 0.0%
  Frequency 4/4 (100%): 0.0%
Table 4, 90 DAA, 20 g ai/ha
  % Referring to Scale: 3.0%
  Frequency 1/1 (0%): 80.0%
  Frequency 2/1 (15%): 20.0%
  Frequency 3/1 (30%): 0.0%
  Frequency 4/1 (50%): 0.0%
  Frequency 4/2 (80%): 0.0%
  Frequency 4/3 (90%): 0.0%
  Frequency 4/4 (100%): 0.0%
Tables 1-4, 60 to 150 days after application
  flowering inhibition performance versus the standard (Ethrel 720): as well as or better than the standard treatment; also recorded: equivalent to or better than the standard
Field studies, rates from 2 to 20 g ai/ha
  sugarcane flowering inhibition: excellent sugarcane flowering inhibitor
